# According to ChEMBL document CHEMBL1201862, “PubChem BioAssay data set” (2004):
# The source made the active and inactive calls.
# What was measured:
# Beta-galactosidase = Beta-galactosidase (Escherichia coli, UniProt Q8VNN2); test: Dose response counterscreen for EBI2 assay utilizing the enzyme, b-galactosidase.; type: functional
# [1] = target: Eukaryotic translation initiation factor 4H (Homo sapiens, UniProt Q15056); test: human eIF4H binding inhibitors, primary screen, translation initiation inhibitor project, biochemical, uHTS, fluorescence polarization (AID 2012)
# [2] = target: Polyadenylate-binding protein 1 (Homo sapiens, UniProt P11940); test: PABP poly(A) RNA binding inhibitors, primary screen, biochemical, fluorescence polarization, uHTS (AID 2014)
# Sequence of Polyadenylate-binding protein 1 (P11940 whole entry): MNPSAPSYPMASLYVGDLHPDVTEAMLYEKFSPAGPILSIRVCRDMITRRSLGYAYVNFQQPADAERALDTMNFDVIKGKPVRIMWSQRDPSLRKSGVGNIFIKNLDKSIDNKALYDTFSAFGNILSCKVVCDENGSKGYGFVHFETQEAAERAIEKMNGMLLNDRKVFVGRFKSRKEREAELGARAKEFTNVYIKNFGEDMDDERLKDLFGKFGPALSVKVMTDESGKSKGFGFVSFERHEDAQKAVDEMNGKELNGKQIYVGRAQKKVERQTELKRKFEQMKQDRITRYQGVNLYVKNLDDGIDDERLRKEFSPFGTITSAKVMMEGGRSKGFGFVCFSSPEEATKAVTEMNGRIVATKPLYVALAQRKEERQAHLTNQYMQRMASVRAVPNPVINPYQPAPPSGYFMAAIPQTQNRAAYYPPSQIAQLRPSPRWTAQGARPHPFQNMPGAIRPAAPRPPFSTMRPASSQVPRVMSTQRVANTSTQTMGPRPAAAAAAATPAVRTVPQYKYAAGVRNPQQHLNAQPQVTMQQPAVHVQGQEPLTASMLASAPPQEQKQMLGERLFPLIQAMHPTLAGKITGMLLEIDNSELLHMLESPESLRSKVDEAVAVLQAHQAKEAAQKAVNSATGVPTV
# Genome polyprotein = Genome polyprotein (dengue virus type 2, UniProt P29990); test: Dengue-2 NS5 methyltransferase inhibitors, primary screen, biochemical, confirmation dose response (AID 588689); type: functional
# Sequence of Genome polyprotein (P29990 2492-3391 limits assumed): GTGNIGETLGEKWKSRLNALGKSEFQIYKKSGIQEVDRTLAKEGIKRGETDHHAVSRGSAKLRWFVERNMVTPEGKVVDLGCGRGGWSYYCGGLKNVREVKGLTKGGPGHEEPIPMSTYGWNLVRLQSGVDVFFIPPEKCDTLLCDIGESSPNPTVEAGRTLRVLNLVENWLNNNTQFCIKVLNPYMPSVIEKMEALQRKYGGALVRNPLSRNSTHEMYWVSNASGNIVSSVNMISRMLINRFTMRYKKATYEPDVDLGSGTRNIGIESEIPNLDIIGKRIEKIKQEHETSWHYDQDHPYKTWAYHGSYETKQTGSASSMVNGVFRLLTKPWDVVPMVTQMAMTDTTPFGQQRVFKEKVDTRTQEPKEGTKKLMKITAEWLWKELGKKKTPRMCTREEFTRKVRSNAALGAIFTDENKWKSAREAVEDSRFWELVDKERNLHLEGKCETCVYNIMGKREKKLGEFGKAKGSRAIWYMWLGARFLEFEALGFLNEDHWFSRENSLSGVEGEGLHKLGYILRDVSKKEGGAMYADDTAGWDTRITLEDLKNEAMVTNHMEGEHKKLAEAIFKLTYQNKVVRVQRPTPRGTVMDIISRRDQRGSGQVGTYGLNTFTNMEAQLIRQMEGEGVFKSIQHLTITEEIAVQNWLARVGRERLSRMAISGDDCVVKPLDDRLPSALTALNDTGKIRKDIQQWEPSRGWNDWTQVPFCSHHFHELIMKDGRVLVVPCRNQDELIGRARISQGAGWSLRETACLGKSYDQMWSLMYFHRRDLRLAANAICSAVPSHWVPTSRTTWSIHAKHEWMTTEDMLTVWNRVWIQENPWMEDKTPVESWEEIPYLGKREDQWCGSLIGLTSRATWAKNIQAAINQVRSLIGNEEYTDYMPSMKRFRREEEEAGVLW
# [3] = target: T1, Carboxy-terminal domain RNA polymerase II polypeptide A small phosphatase 1 (Homo sapiens, UniProt Q9GZU7); test: inhibitors of CTDSP1, concentration-response testing, biochemical assay, absorbance-based, actives from ultra-high-throughput screening (AID 540297); type: functional
# T1 sequence (Q9GZU7 whole entry): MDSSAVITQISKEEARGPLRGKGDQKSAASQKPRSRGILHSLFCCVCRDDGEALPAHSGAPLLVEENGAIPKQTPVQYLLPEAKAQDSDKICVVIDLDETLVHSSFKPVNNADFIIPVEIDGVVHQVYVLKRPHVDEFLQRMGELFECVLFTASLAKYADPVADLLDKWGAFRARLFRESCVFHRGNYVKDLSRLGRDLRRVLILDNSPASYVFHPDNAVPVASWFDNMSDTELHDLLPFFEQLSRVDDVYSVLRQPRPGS
# [4] = target: Tyrosine-protein phosphatase non-receptor type 11 (Homo sapiens, UniProt Q06124); test: SHP2 phosphatase inhibition, dose response, selectivity assay for STEP inhibitor project, biochemical (AID 602367); type: functional; details: read-out: IC50_Mean
# [5] = target: Tyrosine-protein phosphatase non-receptor type 5 (Homo sapiens, UniProt P54829); test: STEP phosphatase inhibitors, confirmation, biochemical, fluorescence intensity, uHTS hits (AID 602372); type: functional; details: read-out: IC50_Mean
# [6] = target: Dual specificity protein phosphatase 3 (Homo sapiens, UniProt P51452); test: VHR phosphatase inhibition, dose response, selectivity assay for STEP inhibitor project, biochemical (AID 602374); type: functional; details: read-out: IC50_Mean
# Sequence of Dual specificity protein phosphatase 3 (P51452 whole entry): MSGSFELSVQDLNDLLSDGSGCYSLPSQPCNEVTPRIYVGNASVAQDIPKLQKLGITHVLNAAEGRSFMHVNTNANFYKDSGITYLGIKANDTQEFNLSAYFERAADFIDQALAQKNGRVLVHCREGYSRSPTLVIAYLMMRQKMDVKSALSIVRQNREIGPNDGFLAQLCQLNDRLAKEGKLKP
# [7] = target: T2, Tyrosine-protein phosphatase non-receptor type 22 (Homo sapiens, UniProt Q9Y2R2); test: PTPN22 phosphatase inhibition, dose response, selectivity assay for STEP inhibitor project, biochemical (AID 624241); type: functional
# T2 sequence (Q9Y2R2 whole entry): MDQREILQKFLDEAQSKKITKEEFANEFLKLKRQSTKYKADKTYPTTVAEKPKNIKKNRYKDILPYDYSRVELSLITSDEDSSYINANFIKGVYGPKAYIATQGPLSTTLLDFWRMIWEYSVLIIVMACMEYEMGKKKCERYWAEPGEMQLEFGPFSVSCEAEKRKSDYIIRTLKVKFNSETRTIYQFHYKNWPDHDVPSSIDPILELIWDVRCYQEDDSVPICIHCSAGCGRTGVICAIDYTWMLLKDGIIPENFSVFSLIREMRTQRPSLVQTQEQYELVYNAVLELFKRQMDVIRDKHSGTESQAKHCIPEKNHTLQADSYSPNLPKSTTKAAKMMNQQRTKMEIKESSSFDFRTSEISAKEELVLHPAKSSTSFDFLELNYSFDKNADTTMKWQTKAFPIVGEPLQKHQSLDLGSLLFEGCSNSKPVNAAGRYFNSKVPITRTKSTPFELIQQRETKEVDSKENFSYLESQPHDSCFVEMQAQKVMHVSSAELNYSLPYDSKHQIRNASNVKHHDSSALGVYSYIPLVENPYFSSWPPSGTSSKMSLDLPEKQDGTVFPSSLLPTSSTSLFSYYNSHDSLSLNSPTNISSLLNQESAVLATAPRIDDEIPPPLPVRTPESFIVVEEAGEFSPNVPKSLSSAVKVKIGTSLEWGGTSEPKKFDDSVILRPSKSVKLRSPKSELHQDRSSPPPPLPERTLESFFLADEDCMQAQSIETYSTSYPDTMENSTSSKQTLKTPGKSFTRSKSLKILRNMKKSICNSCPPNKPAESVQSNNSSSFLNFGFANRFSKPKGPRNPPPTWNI
# [8] = target: SWI/SNF-related matrix-associated actin-dependent regulator of chromatin subfamily A member 2 (Homo sapiens, UniProt P51531); test: Luminescence-based cell-based high throughput dose response assay to identify activators of the function of SWI/SNF related, matrix associated, actin dependent regulator of chromatin, subfamily a, member 2 (SMARCA2, BRM).; type: functional
# [9] = Counterscreen for activators of the function of SWI/SNF related, matrix associated, actin dependent regulator of chromatin, subfamily a, member 2 (SMARCA2, BRM): Luminescence-based cell-based high throughput dose response assay to identify non-selective compounds using the VP16 reporter assay.; type: functional
# [10] = NIH-3T3 fibroblast cytotoxicity, dose response, cytotoxicity control, cell-based, fluorescence, Alamar Blue, secondary assay (AID 2327); type: functional;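 note: NIH-3T3 mouse fibroblasts cultured with fluconazole at 8 µg/mL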
# [11] = C. albicans growth with fluconazole, confirmation, fluorescence, retest (AID 2467); type: functional, cell-based
# Nonstructural protein 1 = Nonstructural protein 1 (Influenza A virus, UniProt Q194T2); type: functional, Influenza A virus (A/California/07/2009(H1N1))
# Sequence of Nonstructural protein 1 (Q194T2 whole entry): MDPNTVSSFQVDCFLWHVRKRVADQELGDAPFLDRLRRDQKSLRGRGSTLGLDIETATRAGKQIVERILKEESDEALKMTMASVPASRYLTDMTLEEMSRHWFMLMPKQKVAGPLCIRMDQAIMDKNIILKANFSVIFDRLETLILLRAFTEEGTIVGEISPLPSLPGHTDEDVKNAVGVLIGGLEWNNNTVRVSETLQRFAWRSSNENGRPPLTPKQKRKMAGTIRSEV
# [12] = target: Matrix metalloproteinase-14 (Homo sapiens, UniProt P50281); test: Dose Response confirmation of uHTS hits for a small molecule inhibitors of MT1-MMP activation in a fluorescence assay set 2.; type: functional
# [13] = ADAM10 inhibitors, peptide cleavage, dose response, biochemical, QFRET (AID 743254);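 note: ADAM10 enzyme with the DM2 quenched FRET peptide as substrate; EDANS fluorescence gain as the protease cuts the substrate; inhibitor potency against ADAM10 proteolytic activity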
# [14] = target: Disintegrin and metalloproteinase domain-containing protein 17 (Homo sapiens, UniProt P78536); test: ADAM17 protease inhibitors, dose response, counter-screen for ADAM10 exosite inhibitor project, biochemical, quenched FRET substrate (AID 743253)
# Sequence of Disintegrin and metalloproteinase domain-containing protein 17 (P78536 whole entry, the tested form may be a part): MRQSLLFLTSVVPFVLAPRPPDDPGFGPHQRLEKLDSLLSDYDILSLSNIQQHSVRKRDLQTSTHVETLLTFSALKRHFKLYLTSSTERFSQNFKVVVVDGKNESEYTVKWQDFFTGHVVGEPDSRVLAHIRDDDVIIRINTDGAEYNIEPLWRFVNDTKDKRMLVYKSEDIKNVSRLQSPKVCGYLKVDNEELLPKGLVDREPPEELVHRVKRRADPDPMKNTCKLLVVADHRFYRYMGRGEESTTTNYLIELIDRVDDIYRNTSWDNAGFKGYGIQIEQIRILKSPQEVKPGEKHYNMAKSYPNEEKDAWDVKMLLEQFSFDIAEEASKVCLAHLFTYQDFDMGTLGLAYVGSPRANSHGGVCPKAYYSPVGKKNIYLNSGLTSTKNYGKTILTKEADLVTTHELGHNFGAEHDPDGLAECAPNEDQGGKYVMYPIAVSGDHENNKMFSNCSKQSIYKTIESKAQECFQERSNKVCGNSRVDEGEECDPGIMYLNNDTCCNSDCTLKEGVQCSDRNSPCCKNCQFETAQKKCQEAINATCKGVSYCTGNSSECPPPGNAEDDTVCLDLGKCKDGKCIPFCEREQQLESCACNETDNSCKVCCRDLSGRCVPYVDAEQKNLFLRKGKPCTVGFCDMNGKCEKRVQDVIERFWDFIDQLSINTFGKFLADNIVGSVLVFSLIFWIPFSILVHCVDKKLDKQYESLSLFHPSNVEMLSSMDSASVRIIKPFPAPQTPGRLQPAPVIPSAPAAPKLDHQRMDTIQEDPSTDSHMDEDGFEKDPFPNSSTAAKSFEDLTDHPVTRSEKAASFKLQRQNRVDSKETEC
# Vero [15] = test: Vero cell toxicity, dose response, cytotoxicity control, plate reader, cherry-pick samples (AID 687020); type: functional, cell-based; details: Chlorocebus sabaeus
# [16] = target: Botulinum neurotoxin type F (Clostridium botulinum, UniProt P30996); test: High-throughput multiplex microsphere dose response for inhibitors of toxin protease, specifically Botulinum neurotoxin light chain F protease, compounds from Cherry Pick 02.; type: functional; details: read-out: EC50_MICROM
# A549 = test: A549 cell toxicity, dose response, cytotoxicity control, plate reader, cherry-pick samples (AID 687028); type: functional, cell-based; details: Homo sapiens
# Vero [17] = test: cells; type: functional; details: Chlorocebus sabaeus
# [18] = target: Arf-GAP with SH3 domain, ANK repeat and PH domain-containing protein 1 (Homo sapiens, UniProt Q9ULH1); type: functional;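 note: biochemical fluorescence polarization dose–response screen measuring inhibition of ASAP1; ASAP1 GAP domain stimulating GTP hydrolysis by truncated human ARF1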
# [19] = target: T3, Long-chain-fatty-acid--AMP ligase FadD28 (Mycobacterium tuberculosis, UniProt P9WQ59); test: Fluorescence polarization aasay to screen for inhibitors that compete for the binding of FadD28 to a bisubstrate Measured in Biochemical System Using Plate Reader - 2147-01_Inhibitor_Dose_CherryPick_Activity.; type: functional, Mycobacterium tuberculosis H37Rv
# T3 sequence (P9WQ59 whole entry): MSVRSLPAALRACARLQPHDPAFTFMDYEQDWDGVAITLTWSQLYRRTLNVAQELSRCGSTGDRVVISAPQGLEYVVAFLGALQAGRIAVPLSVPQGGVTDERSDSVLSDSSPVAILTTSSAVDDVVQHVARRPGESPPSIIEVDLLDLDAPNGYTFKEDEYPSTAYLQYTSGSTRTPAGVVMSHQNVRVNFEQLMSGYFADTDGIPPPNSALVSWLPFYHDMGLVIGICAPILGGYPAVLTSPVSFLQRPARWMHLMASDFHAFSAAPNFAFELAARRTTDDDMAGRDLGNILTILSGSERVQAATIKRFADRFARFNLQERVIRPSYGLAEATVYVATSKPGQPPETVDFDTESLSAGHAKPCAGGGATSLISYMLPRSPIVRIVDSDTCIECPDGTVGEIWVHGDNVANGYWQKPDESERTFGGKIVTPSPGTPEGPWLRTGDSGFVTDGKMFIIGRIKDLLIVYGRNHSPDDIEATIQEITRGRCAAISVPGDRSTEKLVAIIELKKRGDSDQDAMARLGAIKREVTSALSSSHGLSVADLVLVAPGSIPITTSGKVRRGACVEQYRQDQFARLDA
# cells = type: functional, cell-based
# [20] = target: Nuclear receptor subfamily 0 group B member 1 (Homo sapiens, UniProt P51843); type: functional, cell-based;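 note: HEK293T cells transfected with SF-1 and DAX-1 plus StAR promoter luciferase reporter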
# Sequence of Nuclear receptor subfamily 0 group B member 1 (P51843 whole entry): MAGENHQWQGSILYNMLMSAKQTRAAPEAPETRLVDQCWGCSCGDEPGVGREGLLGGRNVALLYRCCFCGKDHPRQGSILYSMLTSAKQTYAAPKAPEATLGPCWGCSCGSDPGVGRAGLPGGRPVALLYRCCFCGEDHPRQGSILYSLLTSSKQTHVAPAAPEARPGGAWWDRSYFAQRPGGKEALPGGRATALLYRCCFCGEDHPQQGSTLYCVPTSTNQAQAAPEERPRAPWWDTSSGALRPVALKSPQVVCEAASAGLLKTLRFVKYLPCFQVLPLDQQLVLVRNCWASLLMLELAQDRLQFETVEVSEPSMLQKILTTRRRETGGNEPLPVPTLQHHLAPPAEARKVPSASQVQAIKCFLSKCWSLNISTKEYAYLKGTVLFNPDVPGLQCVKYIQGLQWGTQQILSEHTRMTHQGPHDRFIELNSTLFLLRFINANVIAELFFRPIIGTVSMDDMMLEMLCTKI
# [21] = MDA-MB-231 cell growth inhibition, dose response, cytotoxicity control for RAD54 inhibitor project, CellTiter-Glo luminescence, cherry-pick (AID 651692); type: functional, cell-based
# [22] = target: T4, DNA repair and recombination protein RAD54-like (Homo sapiens, UniProt Q92698); test: inhibitors of human RAD54 branch migration, confirmation, biochemical, fluorescence, cherry-picked samples, dose series (AID 651657); type: functional
# T4 sequence (Q92698 whole entry): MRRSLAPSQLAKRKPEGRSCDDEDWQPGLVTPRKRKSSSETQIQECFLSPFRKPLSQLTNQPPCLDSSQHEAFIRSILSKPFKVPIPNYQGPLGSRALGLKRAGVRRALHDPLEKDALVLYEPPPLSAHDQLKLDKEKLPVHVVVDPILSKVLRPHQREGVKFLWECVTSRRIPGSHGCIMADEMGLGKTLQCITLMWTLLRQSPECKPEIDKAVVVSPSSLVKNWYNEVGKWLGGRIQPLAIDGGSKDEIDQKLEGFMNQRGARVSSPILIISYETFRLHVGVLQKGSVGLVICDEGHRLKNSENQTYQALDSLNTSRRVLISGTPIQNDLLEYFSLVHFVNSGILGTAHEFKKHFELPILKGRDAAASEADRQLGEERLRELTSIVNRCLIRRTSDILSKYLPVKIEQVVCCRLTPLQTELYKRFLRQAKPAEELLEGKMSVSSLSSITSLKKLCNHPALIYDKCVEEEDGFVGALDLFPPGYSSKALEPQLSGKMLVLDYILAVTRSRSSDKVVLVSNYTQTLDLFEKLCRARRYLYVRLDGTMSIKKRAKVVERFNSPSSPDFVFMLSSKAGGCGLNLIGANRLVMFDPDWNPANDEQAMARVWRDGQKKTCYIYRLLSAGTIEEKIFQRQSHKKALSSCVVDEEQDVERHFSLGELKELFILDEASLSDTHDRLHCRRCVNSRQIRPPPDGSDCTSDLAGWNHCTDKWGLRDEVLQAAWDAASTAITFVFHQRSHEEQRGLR
# [23] = target: T5, DNA repair protein RAD52 homolog (Homo sapiens, UniProt P43351); type: functional, biochemical
# T5 sequence (P43351 whole entry): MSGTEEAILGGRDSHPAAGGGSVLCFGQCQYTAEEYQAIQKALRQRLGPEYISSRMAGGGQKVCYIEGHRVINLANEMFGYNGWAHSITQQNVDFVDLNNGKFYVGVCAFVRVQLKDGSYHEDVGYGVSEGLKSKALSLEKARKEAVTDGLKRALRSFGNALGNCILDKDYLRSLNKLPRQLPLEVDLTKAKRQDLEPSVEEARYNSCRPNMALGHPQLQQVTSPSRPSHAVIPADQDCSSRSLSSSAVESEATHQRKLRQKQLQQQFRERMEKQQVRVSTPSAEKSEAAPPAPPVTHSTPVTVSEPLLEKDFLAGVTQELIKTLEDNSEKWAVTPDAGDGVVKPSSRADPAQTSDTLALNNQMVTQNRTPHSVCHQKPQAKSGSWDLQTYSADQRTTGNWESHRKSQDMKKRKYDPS
# [24] = target: T6, Probable nicotinate-nucleotide adenylyltransferase (Staphylococcus aureus (strain N315), UniProt P65502); type: functional, Staphylococcus aureus subsp. aureus N315;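 for IC50 Mean: confirmatory dose-response retesting of NadD inhibitor hits first found in an ultra-high-throughput screen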
# T6 sequence (P65502 whole entry): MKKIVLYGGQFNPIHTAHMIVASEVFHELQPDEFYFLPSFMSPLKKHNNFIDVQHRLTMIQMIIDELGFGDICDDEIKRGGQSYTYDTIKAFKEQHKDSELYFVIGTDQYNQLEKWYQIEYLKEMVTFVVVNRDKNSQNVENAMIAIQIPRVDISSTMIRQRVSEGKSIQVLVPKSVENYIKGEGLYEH
# [25] = target: T6, Probable nicotinate-nucleotide adenylyltransferase; type: functional, Staphylococcus aureus subsp. aureus N315; details: read-out: IC50_Mean
# Sequence of Beta-galactosidase (Q8VNN2 whole entry): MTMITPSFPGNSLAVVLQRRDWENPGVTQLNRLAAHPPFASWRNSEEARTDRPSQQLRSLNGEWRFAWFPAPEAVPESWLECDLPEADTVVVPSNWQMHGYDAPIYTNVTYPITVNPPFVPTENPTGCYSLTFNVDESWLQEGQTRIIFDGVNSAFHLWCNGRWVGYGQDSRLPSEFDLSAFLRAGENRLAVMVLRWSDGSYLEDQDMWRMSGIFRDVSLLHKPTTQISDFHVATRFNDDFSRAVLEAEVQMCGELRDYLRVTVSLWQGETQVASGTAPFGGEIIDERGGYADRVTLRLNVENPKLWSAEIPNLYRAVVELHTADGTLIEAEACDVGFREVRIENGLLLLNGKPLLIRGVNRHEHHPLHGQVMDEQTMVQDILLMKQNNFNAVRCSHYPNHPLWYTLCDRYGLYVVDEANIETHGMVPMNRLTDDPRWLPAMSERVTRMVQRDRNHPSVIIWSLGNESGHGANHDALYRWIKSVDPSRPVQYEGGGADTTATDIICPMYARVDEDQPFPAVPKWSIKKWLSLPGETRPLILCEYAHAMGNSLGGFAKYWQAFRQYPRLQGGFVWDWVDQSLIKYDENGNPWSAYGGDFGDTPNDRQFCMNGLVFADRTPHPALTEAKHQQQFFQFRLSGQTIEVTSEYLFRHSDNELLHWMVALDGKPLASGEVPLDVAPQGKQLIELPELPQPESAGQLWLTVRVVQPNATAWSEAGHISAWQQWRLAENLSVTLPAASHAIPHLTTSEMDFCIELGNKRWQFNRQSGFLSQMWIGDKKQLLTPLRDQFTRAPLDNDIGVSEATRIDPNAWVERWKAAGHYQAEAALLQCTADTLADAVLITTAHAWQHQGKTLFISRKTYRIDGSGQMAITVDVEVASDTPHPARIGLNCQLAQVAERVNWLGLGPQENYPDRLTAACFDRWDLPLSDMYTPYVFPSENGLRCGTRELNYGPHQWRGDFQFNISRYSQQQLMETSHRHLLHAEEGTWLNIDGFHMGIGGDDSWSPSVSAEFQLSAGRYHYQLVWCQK
compound,measurement,setting,value
Cc1ccc2oc(C(=O)N3CCC(O)(c4ccccc4)CC3)c(C)c2c1,IC50,Beta-galactosidase,> 80 µM (inactive)
COc1ccc(/C=N/NC2=NC(=O)C(CC(=O)O)S2)cc1OCc1ccc(Cl)cc1Cl (stereo not given),IC50,[1],14.7 µM (active)
same,IC50,[2],64.3 µM (active)
same,IC50,Genome polyprotein,59.4 µM (active)
same,IC50,[3],4.48 µM (active)
same,IC50,[4],4.42 µM (active)
same,IC50,[5],9.72 µM (active)
same,IC50,[6],4.79 µM (active)
same,IC50,[7],33.8 µM (inactive)
Cc1ccc2c(c1)cc(CN(Cc1ccco1)C(=O)N1CCOCC1)c1nnnn12,EC50,[8],> 91.2 µM (inactive)
same,EC50,[9],> 91.2 µM (inactive)
Nc1nc(-c2ccccc2)c(N=Nc2ccccc2Cl)s1,EC50,[10],> 160 µM (inactive)
same,EC50,[11],4.78 µM (active)
same,IC50,Nonstructural protein 1,9.93 µM (active)
same,IC50,[12],28 µM (inactive)
same,IC50,[13],8.65 µM (active)
same,IC50,[14],> 69.5 µM (inactive)
CCNS(=O)(=O)c1ccc(Br)c(C(=O)OC(C)C(=O)NCC2CCCCC2)c1 (stereo not given),AC50,Vero [15],31.7 µM (active)
Cc1nc2ccc(NC(=O)[C@@H](NC(=O)c3c(F)cccc3F)C(C)C)cc2s1,EC50,[16],> 20 µM (inactive)
Cc1cccc(N=[N+]([O-])c2cccc(C)n2)n1,AC50,A549,34.5 µM (active)
COCCn1cnc2c(c1=O)c1nc3ccccc3nc1n2/N=C/c1ccc(OC)c(OC)c1,CC50,Vero [17],23.5 µM (active)
same,IC50,[18],41.7 µM (inactive)
CCc1cccc2c(C(=O)CN3C(=O)N(C)C4(CCCCC4)C3=O)c[nH]c12,AC50,[19],> 100 µM (inactive)
same,IC50,cells,> 67.5 µM (inactive)
same,IC50,[20],> 67.5 µM (inactive)
COc1ccc(OC)c2sc(N(CCN(C)C)C(=O)c3ccc4ccccc4c3)nc12,AC50,[21],32.7 µM (active)
same,AC50,[22],58.4 µM (active)
same,AC50,[23],10.7 µM (active)
O=C(NNS(=O)(=O)c1ccc2ccccc2c1)c1cc(-c2ccccn2)nc2ccccc12,IC50,[24],11.7 µM (active)
same,IC50,[25],28.9 µM (active)
